Like-named read-outs stand apart in the source and are kept apart here.
Tests used:
Assay type in all cases: cell-based
TEAD1 in SK-HEP1 cells = TEAD1 in SK-HEP1 cells (Homo sapiens (Human), UniProt P28347); test: TEAD degradation in SK-HEP1 cell line (immunofluorescence)
Outline: (§1)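 SK-HEP1 and NCI-H226 cells were treated in duplicate for 16 or 24 h at 37 °C with compound (10 points, 1:3, top 30 µM final). After fixation, TEAD1 was immunostained with anti-TEF1 and per-cell fluorescence quantified by high-content imaging. DC50 from curve fitting.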

TEAD1 in NCI-H226 cells = TEAD1 in NCI-H226 cells (Homo sapiens (Human), UniProt P28347); test: TEAD degradation in NCI-H226 cell line (immunofluorescence)
Chain of TEAD1 in NCI-H226 cells (P28347 whole entry): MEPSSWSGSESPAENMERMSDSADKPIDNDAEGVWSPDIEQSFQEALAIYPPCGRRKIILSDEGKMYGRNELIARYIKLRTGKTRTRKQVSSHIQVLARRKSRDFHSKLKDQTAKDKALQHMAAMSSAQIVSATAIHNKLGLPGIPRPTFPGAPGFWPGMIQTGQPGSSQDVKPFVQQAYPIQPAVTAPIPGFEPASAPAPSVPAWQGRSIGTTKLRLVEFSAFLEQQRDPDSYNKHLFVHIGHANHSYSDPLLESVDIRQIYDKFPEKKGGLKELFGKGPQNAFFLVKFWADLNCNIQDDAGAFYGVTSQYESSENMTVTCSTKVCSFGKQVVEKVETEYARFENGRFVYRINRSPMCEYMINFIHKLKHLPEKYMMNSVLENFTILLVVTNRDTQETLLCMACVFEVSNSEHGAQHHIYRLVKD
Outline: as §1

TEAD1 = TEAD1 (Homo sapiens (Human), UniProt P28347); test: TEAD degradation assay, 6 h time point, cell line not stated; details: after 6 h, read-out: degradation concentration, DC50, after 6 h
Chain of TEAD1 (P28347 whole entry, canonical isoform): as the sequence (P28347 whole entry) above
Method: Degradation of TEAD isoform TEAD1 by exemplary compounds which has been determined at different time points in two different cell lines, SK-HEP1 and NCI-H226: For the assay, SK-HEP1 (ATCC HTB-52) and NCI-H226 (ATCC CRL-5826) cells were treated in duplicates with the test compounds in a 10-point dose, 1:3 dilution steps, with the top concentration starting at 30 uM (final concentration in assay). […] The primary antibody used was Anti-TEF1 (BD, 610293) and the secondary antibody used was Alexa Fluor® 488 Goat Anti-Mouse IgG (H+L) (Molecular Probes, A-11001). Finally, the cell nuclei were co-stained by Hoechst 33258 (Invitrogen, H-3569) and imaged using a high content imager. The amount of TEAD degradation was determined by quantifying the fluorescence intensity levels of Anti-TEF1 in each individual cell per well. DC50 was calculated using curve fitting software Genedata Screener. Cell media: The SK-HEP1 cells were cultured in the following media: MEM, +10% FCS, +1× GlutaMAX, +100 μM NEAA, +10 mM HEPES, +0.5% Pen/Strep. The NCI-H226 cells were cultured in the following media: RPMI 1640, +10% FBS, +1× GlutaMAX, +10 mM HEPES, +0.5% Pen/Strep.

Chain of TEAD1 in SK-HEP1 cells (P28347 whole entry): as above

## Cc1ncsc1-c1ccc([C@H](C)NC(=O)[C@@H]2C[C@@H](O)CN2C(=O)[C@@H](NC(=O)CCCCCc2cn(CCCCCCCNC(=O)c3ccc4c(c3)c3cn(C)nc3n4-c3ccc(C(F)(F)F)cc3)nn2)C(C)(C)C)cc1 [Compound 29, (2S,4R)-1-[(2S)-3,3-dimethyl-2-(6-{1-[7-({2-methyl-8-[4-(trifluoromethyl)phenyl]-2H,8H-pyrazolo[3,4-b]indol-5-yl}formamido)heptyl]-1H-1,2,3-triazol-4-yl}hexanamido)butanoyl]-4-hydroxy-N-[(1S)-1-[4-(4-methyl-1,3-thiazol-5-yl)phenyl]ethyl]pyrrolidine-2-carboxamide]
TEAD1 in SK-HEP1 cells; 16 h incubation, read-out: DC50 SK-HEP1 16 h
  DC50: 220 nM
TEAD1 in SK-HEP1 cells; 24 h incubation, read-out: DC50 SK-HEP1 24 h
  DC50: 280 nM
TEAD1 in SK-HEP1 cells; 24 hours, ranges, read-out: DC50 SK-HEP1
  DC50: 100 to 1000 nM
TEAD1 in NCI-H226 cells; 16 h incubation, read-out: DC50 NCI-H226 16 h
  DC50: 200 nM
TEAD1 in NCI-H226 cells; 24 h incubation, read-out: DC50 NCI-H226 24 h
  DC50: 300 nM
TEAD1 in NCI-H226 cells; 24 hours, ranges, read-out: DC50 NCI-H226
  DC50: 100 to 1000 nM
TEAD1
  DC50: 280 nM

From patent US20250032625A1, “HETEROBIFUNCTIONAL MOLECULES AS TEAD INHIBITORS” (Merck Patent GmbH, priority 2021, published 2025)
